Test results from patent publication US9896441B2 (Lycera Corporation, priority 2014, dated 2018).

Assays:
[1] = target: T1, RORγ-LBD (Homo sapiens, UniProt P51449); assay: RORγ-Ligand Binding Domain (LBD) TR-FRET Assay; format: biochemical; conditions: for TR-FRET Assay Max Response: maximum response;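 as to TR-FRET Assay Max Response: 665/615 nm signal ratio set to 100 without ursolic acid or test compound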
T1 construct: made in house; host or cells: SF9 cells (baculovirus); used as diluted lysate
T1 sequence (P51449 269-508 limits assumed): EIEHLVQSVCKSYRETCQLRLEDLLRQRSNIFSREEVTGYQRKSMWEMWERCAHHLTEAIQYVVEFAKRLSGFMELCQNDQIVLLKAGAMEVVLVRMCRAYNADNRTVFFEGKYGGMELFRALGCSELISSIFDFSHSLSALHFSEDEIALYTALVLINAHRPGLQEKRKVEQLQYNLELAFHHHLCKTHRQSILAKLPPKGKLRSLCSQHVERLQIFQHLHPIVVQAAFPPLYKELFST
Outline: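 Lysate from SF9 cells expressing His-RORγ-LBD is diluted to about 3 nM final in 50 mM Tris pH 7.0 assay buffer. A biotin-tagged SRC1 LXXLL peptide goes in at 200 nM final, plus ursolic acid at 2 μM final. Test compounds carry 1% DMSO final; signal read by TR-FRET.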

[2] = target: T2, Gal4-RORγ-LBD (Homo sapiens, UniProt P51449); assay: Gal4-RORγ Luciferase Reporter Assay in HEK-293T Cells; format: cell-based; conditions: HEK-293 cells; for Gal4-RORγ Assay Max Response: maximum response
T2 construct: expressed in transfected cells
T2 sequence (P51449 269-508 limits assumed): T1 sequence (P51449 269-508 limits assumed)
Outline: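 Max Response was taken as the upper plateau of a 4-parameter logistic fit of luciferase signal, normalized to 100 for wells without ursolic acid or compound. Transiently Gal4-RORγ-LBD/Gal4-luc transfected HEK-293 cells carrying […] ursolic acid were incubated with test compounds (0.2% DMSO) overnight at 37 °C and read with One-Glo.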

[3] = luciferase reporter, in presence of ursolic acid
[4] = luciferase reporter, with ursolic acid
[5] = with 2 μM ursolic acid (RORγ antagonist), highest test concentration 10 μM
[6] = ursolic acid present, luciferase readout

| Compound | EC50 ([1]; RORγ-LBD TR-FRET) | EC50 [2, 4] | also measured |
| --- | --- | --- | --- |
| C/C(=C\c1ccc2c(c1)N(S(=O)(=O)c1cccc(C(F)(F)F)c1)C[C@H](CCC(=O)N1CC(C)(C(=O)O)C1)O2)c1c(F)cccc1Cl [Example 129I, (S,E)-1-(3-(6-(2-(2-chloro-6-fluorophenyl)-prop-1-en-1-yl)-4-((3-(trifluoromethyl)phenyl)sulfonyl)-3,4-dihydro-2H-benzo[b][1,4]oxazin-2-yl)propanoyl)-3-methylazetidine-3-carboxylic acid] | – | – | EC50 ([1]; RORγ-LBD TR-FRET assay): < 0.5 µM; TR-FRET Assay Max Response ([1]; RORγ-LBD TR-FRET assay): *** (a value in the range of greater than 150 to 200); EC50 [2, 3]: < 0.5 µM; Gal4-RORγ Assay Max Response [2, 3]: ** (a value in the range of greater than 90 to 150) |
| C/C(=C\c1ccc2c(c1)N(S(=O)(=O)c1cccc(C(F)(F)F)c1)C[C@@H](NS(C)(=O)=O)C2)c1c(F)cccc1Cl [Example 116I, (S,E)-N-(7-(2-(2-chloro-6-fluorophenyl)prop-1-en-1-yl)-1-((3-(trifluoromethyl)phenyl)-sulfonyl)-1,2,3,4-tetrahydroquinolin-3-yl)methanesulfonamide] | – | – | EC50 ([1]; RORγ-LBD TR-FRET assay): < 0.5 µM; TR-FRET Assay Max Response ([1]; RORγ-LBD TR-FRET assay): *** (a value in the range of greater than 150 to 200); EC50 [2, 3]: 0.5 to 5 µM; Gal4-RORγ Assay Max Response [2, 3]: ** (a value in the range of greater than 90 to 150) |
| C/C(=C\c1ccc2c(c1)N(S(=O)(=O)c1ccc(F)c(C(F)(F)F)c1)C[C@H](CCC(=O)O)O2)c1c(F)cccc1Cl [Example 86A, (S,E)-3-(6-(2-(2-chloro-6-fluorophenyl)prop-1-en-1-yl)-4-((4-fluoro-3-(trifluoromethyl)-phenyl)sulfonyl)-3,4-dihydro-2H-benzo[b][1,4]oxazin-2-yl)-propanoic acid] | < 0.5 µM | 0.5 to 5 µM | – |
| O=C(O)C[C@H]1CN(S(=O)(=O)c2cccc(C(F)(F)F)c2)c2cc(COc3c(F)cccc3Cl)ccc2O1 | – | – | EC50 [1, 5]: < 0.5 µM; EC50 [2, 6]: 0.5 to 5 µM |
| CCOc1nn(CC)cc1S(=O)(=O)N1C[C@H](CCC(=O)OC)Oc2ccc(/C=C/c3ccccc3F)cc21 [Example 89AN, (S,E)-methyl 3-(4-((3-ethoxy-1-ethyl-1H-pyrazol-4-yl)sulfonyl)-6-(2-fluorostyryl)-3,4-dihydro-2H-benzo[b][1,4]oxazin-2-yl)propanoate] | 0.5 to 5 µM | > 10 µM | – |
| COc1cc(S(=O)(=O)N2C[C@H](CC(C)(C)C(=O)O)Cc3ccc(OCc4c(F)cccc4Cl)cc32)ccc1F [Example 27, (S)-3-(7-((2-Chloro-6-fluorobenzyl)oxy)-1-((4-fluoro-3-methoxyphenyl)sulfonyl)-1,2,3,4-tetrahydroquinolin-3-yl)-2,2-dimethylpropanoic acid] | < 0.5 µM | < 0.5 µM | – |
| O=S(=O)(c1cccc(C(F)(F)F)c1)N1C[C@H](CCO)Oc2ccc(COc3c(F)cccc3Cl)cc21 | – | – | EC50 [1, 5]: < 0.5 µM; EC50 [2, 6]: 0.5 to 5 µM |
| CCOc1ncc(C(F)(F)F)cc1S(=O)(=O)N1C[C@H](CCC(=O)OC)Oc2ccc(/C=C/c3c(Cl)cccc3C(C)(F)F)cc21 [Example 89FH, methyl (S,E)-3-(6-(2-chloro-6-(1,1-difluoroethyl)styryl)-4-((2-ethoxy-5-(trifluoromethyl)-pyridin-3-yl)sulfonyl)-3,4-dihydro-2H-benzo[b][1,4]-oxazin-2-yl)propanoate] | < 0.5 µM | < 0.5 µM | – |
| O=C(O)CC[C@H]1CN(S(=O)(=O)c2cccc(C(F)(F)F)c2)c2cc(/C=C/c3cccc(Cl)c3C(F)(F)F)ccc2O1 [Example 89CO, (S,E)-3-(6-(3-chloro-2-(trifluoromethyl)styryl)-4-((3-(trifluoromethyl)phenyl)sulfonyl)-3,4-dihydro-2H-benzo[b][1,4]oxazin-2-yl)propanoic acid] | < 0.5 µM | 0.5 to 5 µM | – |
| COC(=O)CCC1CC(S(=O)(=O)c2cccc(C(F)(F)F)c2)c2cc(/C=C(\C)c3c(F)cccc3Cl)ccc2O1 (stereo not shown) [Example 186H, methyl (E)-3-(6-(2-(2-chloro-6-fluorophenyl)prop-1-en-1-yl)-4-((3-(trifluoromethyl)phenyl)-sulfonyl)chroman-2-yl)propanoate] | – | – | EC50 ([1]; RORγ-LBD TR-FRET assay): < 0.5 µM; TR-FRET Assay Max Response ([1]; RORγ-LBD TR-FRET assay): *** (a value in the range of greater than 150 to 200); EC50 [2, 3]: < 0.5 µM; Gal4-RORγ Assay Max Response [2, 3]: ** (a value in the range of greater than 90 to 150) |
| CCC(=Cc1ccc2c(c1)N(S(=O)(=O)c1cccc(C(F)(F)F)c1)C[C@H](CCCC(=O)O)O2)CC [Example 195F, (S)-4-(6-(2-ethylbut-1-en-1-yl)-4-((3-(trifluoromethyl)phenyl)-sulfonyl)-3,4-dihydro-2H-benzo[b][1,4]oxazin-2-yl)butanoic acid] | – | – | EC50 [1, 5]: < 0.5 µM; EC50 [2, 6]: < 0.5 µM |
| COC(=O)CC[C@H]1CN(S(=O)(=O)c2cccc(OC(F)F)c2)c2cc(/C=C/c3c(F)cccc3C(F)(F)F)ccc2O1 [Example 89AJ, (S,E)-methyl 3-(4-((3-(difluoromethoxy)phenyl)sulfonyl)-6-(2-fluoro-6-(trifluoromethyl)-styryl)-3,4-dihydro-2H-benzo[b][1,4]oxazin-2-yl)propanoate] | < 0.5 µM | 0.5 to 5 µM | – |
| CC/C(=C\c1ccc2c(c1)N(S(=O)(=O)c1cccc(C(F)(F)F)c1)C[C@H](CCC(=O)O)O2)c1ccccc1 [Example 36C, (S,E)-3-(6-(2-phenylbut-1-en-1-yl)-4-((3-(trifluoromethyl)-phenyl)sulfonyl)-3,4-dihydro-2H-benzo[b][1,4]oxazin-2-yl)propanoic acid] | < 0.5 µM | 0.5 to 5 µM | – |
| O=C(O)CC[C@H]1CN(S(=O)(=O)c2cc(C(F)(F)F)cnc2OCCO)c2cc(/C=C/c3c(Cl)cccc3C(F)F)ccc2O1 [Example 89EM, (S,E)-3-(6-(2-chloro-6-(difluoromethyl)styryl)-4-((2-(2-hydroxyethoxy)-5-(trifluoromethyl)pyridin-3-yl)sulfonyl)-3,4-dihydro-2H-benzo[b][1,4]oxazin-2-yl)propanoic acid] | < 0.5 µM | < 0.5 µM | – |
| COC(=O)CC[C@H]1CN(S(=O)(=O)c2cccc(OC(F)F)c2)c2cc(/C=C/c3ccccc3OC)ccc2O1 [Example 89AZ, (S,E)-methyl 3-(4-((3-(difluoromethoxy)phenyl)sulfonyl)-6-(2-methoxystyryl)-3,4-dihydro-2H-benzo[b][1,4]oxazin-2-yl)propanoate] | < 0.5 µM | < 0.5 µM | – |
| C/C(=C\c1ccc2c(c1)N(S(=O)(=O)c1cccc(C(F)(F)F)c1)C[C@H](CCC(=O)N1CCC(C)(C(=O)O)CC1)O2)c1c(F)cccc1Cl [Example 129N, (S,E)-1-(3-(6-(2-(2-chloro-6-fluorophenyl)-prop-1-en-1-yl)-4-((3-(trifluoromethyl)phenyl)sulfonyl)-3,4-dihydro-2H-benzo[b][1,4]oxazin-2-yl)propanoyl)-4-methylpiperidine-4-carboxylic acid] | – | – | EC50 ([1]; RORγ-LBD TR-FRET assay): < 0.5 µM; TR-FRET Assay Max Response ([1]; RORγ-LBD TR-FRET assay): *** (a value in the range of greater than 150 to 200); EC50 [2, 3]: < 0.5 µM; Gal4-RORγ Assay Max Response [2, 3]: ** (a value in the range of greater than 90 to 150) |
| Cc1ccnc(/C=C/c2ccc3c(c2)N(S(=O)(=O)c2cccc(C(F)(F)F)c2)C[C@H](CCC(=O)O)O3)c1F [Example 89CH, (S,E)-3-(6-(2-(3-fluoro-4-methylpyridin-2-yl)vinyl)-4-((3-(trifluoromethyl)phenyl)sulfonyl)-3,4-dihydro-2H-benzo[b][1,4]-oxazin-2-yl)propanoic acid] | < 0.5 µM | > 10 µM | – |
| C/C(=C\c1ccc2c(c1)N(S(=O)(=O)c1cccc(C(F)(F)F)c1)C[C@H](CCNC(=O)C(C)(C)O)O2)c1c(F)cccc1Cl [Example 115, (S,E)-N-(2-(6-(2-(2-Chloro-6-fluorophenyl)prop-1-en-1-yl)-4-((3-(trifluoromethyl)phenyl)sulfonyl)-3,4-dihydro-2H-benzo[b][1,4]oxazin-2-yl)ethyl)-2-hydroxy-2-methylpropanamide] | – | – | EC50 ([1]; RORγ-LBD TR-FRET assay): < 0.5 µM; TR-FRET Assay Max Response ([1]; RORγ-LBD TR-FRET assay): *** (a value in the range of greater than 150 to 200); EC50 [2, 3]: < 0.5 µM; Gal4-RORγ Assay Max Response [2, 3]: * (a value in the range of 30 to 90) |

Second part, led by results:

| EC50 ([1]; RORγ-LBD TR-FRET) | EC50 [2, 4] | Compound | also measured |
| --- | --- | --- | --- |
| < 0.5 µM | 0.5 to 5 µM | CC(C)=Cc1ccc2c(c1)N(S(=O)(=O)c1cccc(C(F)(F)F)c1)C[C@H](CCC(=O)O)O2 [Example 95AB, (S)-3-(6-(2-methylprop-1-en-1-yl)-4-((3-(trifluoromethyl)-phenyl)sulfonyl)-3,4-dihydro-2H-benzo[b][1,4]oxazin-2-yl)propanoic acid] | – |
| < 0.5 µM | < 0.5 µM | CCC(=Cc1ccc2c(c1)N(S(=O)(=O)c1cccc(C(F)(F)F)c1)C[C@H](CCC(=O)O)O2)CC [Example 95E, (S)-3-(6-(2-ethylbut-1-en-1-yl)-4-((3-(trifluoromethyl)phenyl)-sulfonyl)-3,4-dihydro-2H-benzo[b][1,4]oxazin-2-yl)propanoic acid] | – |
| < 0.5 µM | 0.5 to 5 µM | O=C(O)CC[C@H]1CN(S(=O)(=O)c2cc(C(F)(F)F)cnc2OCCO)c2cc(CC3CCCCC3)ccc2O1 [Example 95D, (S)-3-(6-(cyclohexylmethyl)-4-((2-(2-hydroxyethoxy)-5-(trifluoromethyl)pyridin-3-yl)sulfonyl)-3,4-dihydro-2H-benzo[b][1,4]oxazin-2-yl)propanoic acid] | – |
